Reference: ChEMBL document CHEMBL1201862, “PubChem BioAssay data set” (2004)
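The compound was tested at five concentrations on cells cultured in 96-well plates, with a 48-hour exposure period. GI50 = concentration required for 50% inhibition of growth.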 Activity calls are given as the source filed them. Rule as the data show it: active = GI50 up to about 1.1 µM and inactive = higher.

Experiments:
Test in all cases: NCI tumour cell line growth inhibition, 48 h
MOLT-4 = test system: MOLT-4
NCI-H226 = test system: NCI-H226
LOX IMVI = test system: LOX IMVI
UACC-62 = test system: UACC-62
IGROV-1 = test system: IGROV-1
BT-549 = test system: BT-549
M14 = test system: M14
UACC-257 = test system: UACC-257
DU-145 = test system: DU-145
SK-MEL-2 = test system: SK-MEL-2
NCI-H23 = test system: NCI-H23
MDA-N = test system: MDA-N
HL-60 = test system: HL-60
T47D = test system: T47D
OVCAR-4 = test system: OVCAR-4
KM12 = test system: KM12
NCI-H522 = test system: NCI-H522
NCI/ADR-RES = test system: NCI/ADR-RES
K562 = test system: K562

Measured: GI50

C[C@H]1[C@H](C)CC[C@]2(C(=O)OC3OC(CO)C(O)C(O)C3O)CC[C@]3(C)C(=CC[C@@H]4[C@@]5(C)C[C@H]6OC(=O)c7cc(O)c(O)c(O)c7-c7c(cc(O)c(O)c7O)C(=O)O[C@@H]6C(CO)(CO)[C@@H]5CC[C@]43C)[C@H]12 (some centres undefined)
inactive: MOLT-4 > 41.5 µM | NCI-H226 > 91.8 µM | LOX IMVI 16.4 µM | UACC-62 99.3 µM | IGROV-1 > 100 µM | BT-549 > 100 µM | M14 > 100 µM | UACC-257 > 100 µM | DU-145 > 100 µM | SK-MEL-2 > 100 µM | NCI-H23 > 100 µM | MDA-N 25.5 µM | HL-60 44 µM | T47D > 74.8 µM | OVCAR-4 27.1 µM | KM12 42.9 µM | NCI-H522 16.6 µM | NCI/ADR-RES > 100 µM | K562 49.3 µM

O=c1oc2cc(/N=C/c3ccc4c(c3)OCO4)ccc2c2ccccc12
inactive: MOLT-4 33.3 µM | NCI-H226 > 100 µM | LOX IMVI 79.8 µM | UACC-62 55.8 µM | IGROV-1 78.3 µM | BT-549 > 100 µM | M14 > 100 µM | UACC-257 > 100 µM | DU-145 > 100 µM | SK-MEL-2 92.9 µM | NCI-H23 > 100 µM | MDA-N > 100 µM | HL-60 > 100 µM | T47D 43.7 µM | OVCAR-4 > 100 µM | KM12 > 100 µM | NCI-H522 56.8 µM | NCI/ADR-RES 77.1 µM | K562 > 100 µM

NS(=O)(=O)c1ccc(Nc2c3ccccc3nc3c(C(=O)NC(CO)(CO)CO)cccc23)cc1
active: MOLT-4 0.0468 µM | NCI-H226 0.136 µM | LOX IMVI 0.132 µM | UACC-62 0.138 µM | IGROV-1 0.136 µM | BT-549 0.126 µM | M14 0.186 µM | UACC-257 0.181 µM | DU-145 0.194 µM | SK-MEL-2 0.21 µM | NCI-H23 0.15 µM | MDA-N 0.272 µM | HL-60 0.21 µM | T47D 0.0815 µM | OVCAR-4 0.0598 µM | KM12 0.158 µM | NCI-H522 0.15 µM | NCI/ADR-RES 0.769 µM | K562 0.19 µM

CCCCC(=C=C1CCCCC1O)C1CCCN1C(=O)OC(C)(C)C (centres undefined)
inactive: MOLT-4 15.8 µM | NCI-H226 17.4 µM | LOX IMVI 17.7 µM | UACC-62 11.2 µM | IGROV-1 16.7 µM | BT-549 19.3 µM | M14 16.9 µM | UACC-257 15.6 µM | DU-145 17.5 µM | SK-MEL-2 16.2 µM | NCI-H23 16 µM | MDA-N 16.4 µM | HL-60 11.1 µM | T47D 13.2 µM | OVCAR-4 13.9 µM | KM12 16.6 µM | NCI-H522 17.1 µM | NCI/ADR-RES 14.3 µM | K562 17.5 µM

C/C=C/COc1cc(NC(=S)OC(C)C)ccc1Cl.C/C=C\COc1cc(NC(=S)OC(C)C)ccc1Cl
inactive: MOLT-4 14.8 µM | NCI-H226 17.5 µM | LOX IMVI 19.5 µM | UACC-62 15.8 µM | IGROV-1 19.6 µM | BT-549 19.6 µM | M14 24.2 µM | UACC-257 18.7 µM | DU-145 26.5 µM | SK-MEL-2 13.6 µM | NCI-H23 16.9 µM | MDA-N 16.1 µM | HL-60 19.3 µM | T47D 16.9 µM | OVCAR-4 16.8 µM | KM12 17.4 µM | NCI-H522 14.1 µM | NCI/ADR-RES 16 µM

O=C1C(/C=N/CCc2c[nH]c3ccccc23)C(C(F)(F)F)=NN1c1nc2ccccc2s1 (centres undefined)
active: T47D 0.664 µM
inactive: MOLT-4 21.1 µM | NCI-H226 26.4 µM | LOX IMVI 27.9 µM | UACC-62 19.5 µM | IGROV-1 24.4 µM | BT-549 25.3 µM | M14 30.7 µM | UACC-257 18 µM | DU-145 23.3 µM | SK-MEL-2 28.8 µM | NCI-H23 30.8 µM | MDA-N 32.8 µM | HL-60 19.8 µM | OVCAR-4 26.7 µM | NCI-H522 19.5 µM | NCI/ADR-RES 26.7 µM | K562 29.2 µM

O=C(NNC(=O)c1ccccc1O)c1cccc(Br)c1
inactive: MOLT-4 9.23 µM | NCI-H226 23.2 µM | LOX IMVI 15.2 µM | UACC-62 47.3 µM | IGROV-1 18.3 µM | BT-549 > 100 µM | M14 26.9 µM | UACC-257 > 77.6 µM | DU-145 30.2 µM | SK-MEL-2 > 70 µM | NCI-H23 > 100 µM | MDA-N > 57.5 µM | HL-60 5.82 µM | T47D > 51.6 µM | OVCAR-4 45.5 µM | KM12 > 42.6 µM | NCI-H522 6.25 µM | NCI/ADR-RES 21.1 µM | K562 46.7 µM

CC(=O)O[C@H]1C(=O)[C@@]2(C)[C@H]([C@H](OC(=O)c3ccccc3)[C@]3(O)C[C@H](OC(=O)[C@H](OC(=O)OCCC(O)CO)[C@@H](NC(=O)c4ccccc4)c4ccccc4)C(C)=C1C3(C)C)[C@]1(OC(C)=O)CO[C@@H]1C[C@@H]2O (some centres undefined)
active: MOLT-4 < 0.0109 µM | NCI-H226 < 0.01 µM | LOX IMVI < 0.01 µM | UACC-62 < 0.01 µM | IGROV-1 < 0.01 µM | BT-549 < 0.0159 µM | M14 < 0.01 µM | UACC-257 < 0.01 µM | DU-145 < 0.01 µM | NCI-H23 < 0.01 µM | MDA-N < 0.01 µM | HL-60 < 0.01 µM | T47D < 0.01 µM | KM12 < 0.01 µM | NCI-H522 < 0.01 µM | K562 < 0.01 µM
inactive: SK-MEL-2 29 µM | OVCAR-4 17.4 µM | NCI/ADR-RES 3.56 µM

CC(C)(C)c1cc(C(=O)C2Cc3ccccc3C(=O)O2)cc(C(C)(C)C)c1O (centres undefined)
inactive: MOLT-4 8.55 µM | NCI-H226 17.9 µM | LOX IMVI 11.9 µM | UACC-62 12.1 µM | IGROV-1 14.5 µM | BT-549 10.5 µM | M14 12.6 µM | UACC-257 11.6 µM | DU-145 14.8 µM | SK-MEL-2 10.9 µM | NCI-H23 13.9 µM | MDA-N 8.61 µM | HL-60 4.88 µM | T47D 16.5 µM | OVCAR-4 11 µM | KM12 12 µM | NCI-H522 11.6 µM | NCI/ADR-RES 13 µM | K562 11.4 µM

CC(C)CNc1nc(N)nc(O)c1NC=O
inactive: MOLT-4 > 100 µM | NCI-H226 > 100 µM | LOX IMVI > 100 µM | UACC-62 > 100 µM | IGROV-1 > 100 µM | BT-549 > 100 µM | M14 > 100 µM | UACC-257 > 100 µM | DU-145 > 100 µM | SK-MEL-2 > 100 µM | NCI-H23 > 100 µM | MDA-N > 100 µM | HL-60 > 100 µM | T47D > 100 µM | OVCAR-4 > 100 µM | KM12 > 100 µM | NCI-H522 > 100 µM | NCI/ADR-RES > 100 µM | K562 > 100 µM

Cc1cc(/N=C/c2ccc(N(C)C)cc2)n(-c2ccccc2)n1
inactive: MOLT-4 42.6 µM | NCI-H226 50.5 µM | LOX IMVI 48.3 µM | UACC-62 86.7 µM | IGROV-1 50.6 µM | BT-549 51.3 µM | M14 49.2 µM | UACC-257 91.4 µM | DU-145 35.6 µM | SK-MEL-2 > 100 µM | NCI-H23 51.2 µM | MDA-N 5.86 µM | HL-60 17.9 µM | T47D 18.5 µM | OVCAR-4 > 100 µM | KM12 16.7 µM | NCI-H522 30.1 µM | NCI/ADR-RES 24.7 µM | K562 44.6 µM

CN(C)c1ccc(C(c2ccc(N(C)C)cc2)c2ccc([N+](=O)[O-])cc2)cc1
inactive: MOLT-4 > 100 µM | NCI-H226 > 100 µM | LOX IMVI > 100 µM | UACC-62 > 100 µM | IGROV-1 > 100 µM | BT-549 > 100 µM | M14 > 100 µM | UACC-257 > 100 µM | DU-145 > 100 µM | SK-MEL-2 > 100 µM | NCI-H23 > 100 µM | MDA-N > 100 µM | HL-60 23.9 µM | T47D > 100 µM | OVCAR-4 > 100 µM | KM12 > 100 µM | NCI-H522 > 100 µM | NCI/ADR-RES > 100 µM | K562 > 100 µM

OCC(O)C(O)C(O)C(O)c1nc2cc(Cl)ccc2[nH]1 (centres undefined)
inactive: MOLT-4 > 100 µM | NCI-H226 26.2 µM | LOX IMVI > 100 µM | UACC-62 > 100 µM | IGROV-1 > 100 µM | BT-549 > 100 µM | M14 > 100 µM | UACC-257 > 100 µM | DU-145 > 100 µM | SK-MEL-2 > 100 µM | NCI-H23 > 100 µM | MDA-N > 100 µM | HL-60 2.14 µM | T47D > 100 µM | OVCAR-4 > 100 µM | KM12 > 100 µM | NCI-H522 > 100 µM | NCI/ADR-RES > 100 µM | K562 > 100 µM

CC1=CP(=O)(c2c(C(C)C)cc(C(C)C)cc2C(C)C)CCC1Cl (centres undefined)
inactive: MOLT-4 6.7 µM | NCI-H226 19.1 µM | LOX IMVI 18.8 µM | UACC-62 12 µM | IGROV-1 15.4 µM | BT-549 17.1 µM | M14 14 µM | UACC-257 11.6 µM | DU-145 19.6 µM | SK-MEL-2 16.1 µM | NCI-H23 16.6 µM | MDA-N 21.7 µM | HL-60 13.7 µM | T47D 11.6 µM | OVCAR-4 19.3 µM | KM12 17.3 µM | NCI-H522 14.1 µM | NCI/ADR-RES 15 µM | K562 10.2 µM
